How the values were obtained:
mPGES-1 [1] = target: T1, mPGES-1 (Homo sapiens (Human), UniProt O14684); assay: mPGES-1 enzyme assay (HTRF detection of PGE2); assay type: biochemical
Procedure: Microsomes from Rosetta E. coli bacteria expressing recombinant human mPGES-1 can be derived as described below:
Inoculate 5 ml LB with Ampicilin (50 μg/ml) and Chloramphenicol (34 μg/ml) with bacteria from freeze culture. Incubate 8 h at 37° C. with 200 rpm. Thereafter, inoculate 500-1000 ml LB containing Amp and Chloro with the 5 ml on culture and grow to OD640 of 0.8-1.0. Chill the culture to +4° C. before induction. Induce the culture with IPTG at a final concentration of 400 μM. Express the protein at room temp 18-23° C. with 200 rpm shaking over night.
The following steps can be performed on the following day: • 1. Spin down the cells in 250 ml centrifuge flasks for 15 min at 7000 rpm (Beckmann Coulte Avanti J-E centrifuge) • 2. Dissolve the pellet from 250 ml culture in 12.5 ml homogenization buffer • 3. (15 mM Tris-HCL pH8, 1 mM EDTA pH8, […], 2.5 mM GSH, 1 Tablet Protease inhibitor per 50 ml buffer) • 4. […] Add 2.5 ml MgCl2 (100 mM) and DNase 12.5 μl (0.8 mg/ml) and incubate on ice for 30 min • 6. Spin down the bacteria debris and save the supernatant, 7000 rpm for 15 min • 7. Isolate the protein containing membranes in the supernatant by ultracentrifugation 120000×g for 2 hour at 4° C. (Sorvall T880 rotor). • 8. Discard the supernatant and dissolve the pellet in 20 mM Potassium phosphate buffer pH7.4 (KH2PO4 and K2HPO4) buffer by sonication (5×10 s, 30% of a 50 W sonifier) and aliquot the enzyme and store aliquots at −80° C.
Before each experiment is performed an aliquot of the enzyme is thawed and it can then be dissolved in 0.1 M Potassium phosphate buffer pH7.4 (KH2PO4 and K2HPO4) buffer containing 2.5 mM GSH.
The aim of this assay is to determine the affinity of a test compound for the mPGES-1 enzyme.
47 μl of recombinant human mPGES-1 (˜0.5 μg protein/well) containing microsomal suspension in a buffer containing GSH, (2.5 mmol/L L-Glutathione reduced, dissolved in 0.1 mol/L Phosphat Buffer pH 7.4) is dispensed in a 384-well plate and thereafter 1 μl of the test compound(s) is/are added and incubated for 25 minutes at room temperature. The enzyme reaction is started by the addition of 2 ul PGH2 (final conc. 2 μM) dissolved in water-free Diglyme. After 60 seconds the reaction is terminated by addition of a stop solution containing FeCl2 (10 μL 0.074 mol/l FeCl2). The samples are diluted between 1:25 in PBS (Phosphate Buffered Saline). 10 μl of the diluted samples are transferred to 384-well low volume plate. In order to quantify the amount of PGE2 that has been formed, a homogenous time resolved fluorescent (HTRF) detecting of PGE2 has been performed using a commercially available kit from Cisbio according to the manufactures recommendation. […] Briefly, the diluted samples are mixed with 5 μl PGE2-d2 conjungate and 5 μl anti-PGE2 cryptate conjungate. After an incubation period of the plates over night, the fluorescence is measured by the use of an appropriate microplate reader.
The quantification plate contains also wells with different concentrations of PGE2 as calibration curve for the calculation of the PGE2 concentrations from the HTRF ratio values.
From all mPGES enzyme assay the background is subtracted and the IC50 is calculated over a nonlinear regression with conventional software.

mPGES-1 [2] = target: T1, mPGES-1; assay: A549 cell-based assay (PGE2 formation, IL-1β stimulated, 50% human serum); conditions: A549 cells
Procedure, shortened: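 Human A549 cells (7000 cells/well) in F-12 medium with 50% human serum, with IL-1β stimulation. IC50 from 6-8 point titrations.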

[3] = recombinant human mPGES-1 microsomes, PGH2 2 μM, read-out: mPGES-1 inhibitory effect in the enzyme assay, IC50
[4] = IL-1β 5 ng/ml, read-out: mPGES-1 inhibitory effect in the cell assay, IC50

T1 sequence (O14684 whole entry): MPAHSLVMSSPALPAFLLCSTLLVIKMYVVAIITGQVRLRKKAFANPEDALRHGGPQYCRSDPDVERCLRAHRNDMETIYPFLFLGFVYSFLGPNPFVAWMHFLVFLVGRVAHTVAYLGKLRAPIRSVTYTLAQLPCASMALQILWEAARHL

| SMILES | IC50 (mPGES-1 [1]; [3]) [nM] | IC50 (mPGES-1 [2]; [4]) [nM] | IC50 (mPGES-1 [1]; Table C comparison of selected benzimidazoles, read-out: Enzym IC50) [nM] | IC50 (mPGES-1 [2]; Table C comparison of selected benzimidazoles, read-out: Cell IC50) [nM] |
| --- | --- | --- | --- | --- |
| Cn1c(Nc2c(Cl)ccc(CNC(=O)C(C)(C)C)c2Cl)nc2cc(C(=O)Nc3ccc(F)c(F)c3)c(OCC(F)F)cc21 [Example 74] | 9 | 1 | – | – |
| Cn1c(Nc2c(Cl)ccc(CNC(=O)C(C)(C)C)c2Cl)nc2cc(C(=O)N[C@H]3CC[C@H](C(F)F)CC3)c(OCC(F)F)cc21 [Example 68] | 2 | 1 | – | – |
| Cn1c(Nc2c(Cl)ccc(CNC(=O)C(C)(C)C)c2Cl)nc2cc(C(=O)NCC(F)(F)F)c(F)cc21 [Example 21] | 3 | 36 | – | – |
| Cn1c(Nc2c(Cl)ccc(CNC(=O)C(C)(C)C)c2Cl)nc2cc(C(=O)Nc3cccc(C(F)(F)F)n3)c(OCC(F)F)cc21 [Example 66] | 4 | < 1 | – | – |
| Cn1c(Nc2c(Cl)ccc(CNC(=O)C(C)(C)C)c2Cl)nc2cc(C(=O)NCC3CCCCC3)c(OCC(F)F)cc21 [Example 52] | 4 | < 1 | – | – |
| CC(C)(C)C(=O)NCc1ccc(Cl)c(Nc2nc3cc(C(=O)Nc4ccc(Br)cc4)c(OCC(F)F)cc3[nH]2)c1Cl [Example 4, N-(4-Bromo-phenyl)-2-{2,6-dichloro-3-[(2,2-dimethyl-propionylamino)-methyl]-phenylamino}-6-(2,2-difluoro-ethoxy)-1H-benzimidazole-5-carboxylic acid amide] | 4 | 2 | – | – |
| Cn1c(Nc2c(Cl)ccc(CNC(=O)C(C)(C)C)c2Cl)nc2cc(C(=O)N[C@H]3CC[C@H](C(F)(F)F)CC3)c(OCC(F)F)cc21 [drawing 46] | – | – | 2 | < 1 |
| Cn1c(Nc2c(Cl)ccc(CNC(=O)C(C)(C)C)c2Cl)nc2cc(C(=O)Nc3ccncc3Cl)c(OCC(F)F)cc21 [Example 65] | 4 | 6 | – | – |
| Cn1c(Nc2c(Cl)ccc(CNC(=O)OC(C)(C)C)c2Cl)nc2cc(C(=O)NCC(F)(F)F)c(OCC(F)F)cc21 [Example 16] | 5 | 106 | – | – |
| Cn1c(Nc2c(Cl)ccc(CNC(=O)C(C)(C)C)c2Cl)nc2cc(C(=O)Nc3cccc(Cl)c3)c(OCC(F)F)cc21 [Example 30] | 4 | < 1 | – | – |
| CC1CCCN1C(=O)NCc1ccc(Cl)c(Nc2nc3cc(C(=O)N[C@H]4CC[C@H](C(F)(F)F)CC4)c(OCC(F)F)cc3n2C)c1Cl (stereo partly drawn) [Example 82] | 1 | 43 | – | – |
| Cn1c(Nc2c(Cl)ccc(CNC(=O)C(C)(C)C)c2Cl)nc2cc(C(=O)Nc3cccc(F)c3)c(OCC(F)F)cc21 [Example 31] | 3 | 1 | – | – |
| Cc1ccc(Cl)cc1NC(=O)c1cc2nc(Nc3c(Cl)ccc(CNC(=O)C(C)(C)C)c3Cl)n(C)c2cc1OCC(F)F [Example 54] | 3 | < 1 | – | – |
| CCNC(=O)c1cc2nc(Nc3c(Cl)ccc(CNC(=O)C(C)(C)C)c3Cl)n(C)c2cc1OCC(F)F [Example 56] | 4 | 3 | – | – |
| Cn1c(Nc2c(Cl)ccc(CNC(=O)C(C)(C)C)c2Cl)nc2cc(C(=O)Nc3ccc(Cl)cc3Cl)c(OCC(F)F)cc21 [Example 60, N-(2,4-dichloro-phenyl)-2-{2,6-dichloro-3-[(2,2-dimethyl-propionylamino)-methyl]-phenylamino}-6-(2,2-difluoro-ethoxy)-1-methyl-1H-benzimidazole-5-carboxylic acid amide] | 3 | < 1 | – | – |

The next lines start with results.

| IC50 (mPGES-1 [1]; [3]) [nM] | IC50 (mPGES-1 [2]; [4]) [nM] | SMILES | IC50 (mPGES-1 [1]; Table C comparison of selected benzimidazoles, read-out: Enzym IC50) [nM] | IC50 (mPGES-1 [2]; Table C comparison of selected benzimidazoles, read-out: Cell IC50) [nM] |
| --- | --- | --- | --- | --- |
| 2 | 12 | Cn1c(Nc2c(Cl)ccc(CNC(=O)C(C)(C)C)c2F)nc2cc(C(=O)NCC(F)(F)F)c(OCC(F)F)cc21 [Example 77] | – | – |
| 3 | 1 | Cc1cc(Cl)cnc1NC(=O)c1cc2nc(Nc3c(Cl)ccc(CNC(=O)C(C)(C)C)c3Cl)n(C)c2cc1OCC(F)F [Example 63] | – | – |
| 1 | 4 | Cn1c(Nc2c(Cl)ccc(CNC(=O)C(C)(C)C)c2Cl)nc2cc(C(=O)Nc3c(F)ccc(F)c3F)c(OCC(F)F)cc21 [Example 85] | – | – |
| 2 | 3 | CC(C)(C)C(=O)NCc1ccc(Cl)c(Nc2nc3cc(C(=O)N[C@H]4CC[C@H](C(F)(F)F)CC4)c(OCC(F)F)cc3[nH]2)c1Cl [Example 2, N-(trans-4-Trifluoromethyl-cyclohex-1-yl)-2-{2,6-dichloro-3-[(2,2-dimethyl-propionylamino)-methyl]-phenylamino}-6-(2,2-difluoro-ethoxy)-1H-benzimidazole-5-carboxylic acid amide] | – | – |
| 2 | 9 | Cn1c(Nc2c(F)ccc(CNC(=O)C(C)(C)C)c2F)nc2cc(C(=O)N[C@H]3CC[C@H](C(F)(F)F)CC3)c(OCC(F)F)cc21 [Example 25] | – | – |
| 2 | 1 | Cn1c(Nc2c(Cl)ccc(CNC(=O)C(C)(C)C)c2Cl)nc2cc(C(=O)Nc3cc(Cl)ccc3Cl)c(F)cc21 [Example 22] | – | – |
| 2 | 1 | Cn1c(Nc2c(Cl)ccc(CNC(=O)C(C)(C)C)c2Cl)nc2cc(C(=O)Nc3cccc(Cl)c3F)c(OCC(F)F)cc21 [Example 73] | – | – |
| 1 | < 1 | Cn1c(Nc2c(Cl)ccc(CNC(=O)C(C)(C)C)c2Cl)nc2cc(C(=O)Nc3cc(F)cc(Cl)c3)c(F)cc21 [Example 23] | – | – |
| 2 | 1 | Cn1c(Nc2c(Cl)ccc(CNC(=O)C(C)(C)C)c2Cl)nc2cc(C(=O)Nc3cc(C(F)(F)F)ccn3)c(OCC(F)F)cc21 [Example 67] | – | – |

— patent US8759537B2, “3H-imidazo [4, 5-C] pyridine-6-carboxamides as anti-inflammatory agents” (Boehringer Ingelheim International GmbH, priority 2010, dated 2014)
